What was measured:
TC-1 tumors [1] = test: TC-1 syngeneic tumor growth in mice (tumor volumes); assay type: in vivo, mouse
Method: To establish TC-1 tumors, male and female mice 6-16 weeks of age were anesthetized and injected subcutaneously (s.c.) with 1×10^5 TC-1 cells in the right or left rear flank. […] Beginning about 2 weeks after cell injection, mice were anesthetized, and their tumors were measured with calipers every 2-4 days until the tumor size required sacrificing of the animals. Measurements were taken in two dimensions (length and width) because the depth of the tumor was difficult to assess in live animals. The depth of the tumor was therefore estimated based on the smaller (width) measurement, and the volume of the tumor was calculated using the formula: (length×width×depth)±2. One hour prior to sacrifice, 5-bromo-2′-deoxyuridine (BrdU; Sigma) was injected intraperitoneally (i.p.) into mice at a single dose of 50 mg/kg for further assessment of tumor or immune cell proliferation. […] Excised tumors were measured in three dimensions to obtain an accurate volume and then weighed. Tumors and spleens were cut into sections for cell isolation, histologic examination, or freezing.
Control mice in the experiments utilizing C5aR antagonist or Taxol were injected s.c., or i.p., respectively, with ˜400 μl PBS alone, or in some cases, s.c. with the cyclic hexapeptide AcF[OPdChaA(d)R] […] The pattern of the administration of this control peptide to mice followed that described for the C5aR antagonist.
The effect of genotype or treatment on tumor growth (FIGS. 1-4) was analyzed with two-way analysis of variance (ANOVA) using GraphPad Prism (GraphPad Software, Inc.); the Bonferroni post-test correction was applied to control for the occurrence of false-positives. […] A p value equal to or less than 0.05 was considered significant.

[2] = according to the manufacturer; cited from earlier work
C5aR = target: T1, C5aR (Mus musculus, UniProt P30993); settings: cited from earlier work
T1 construct: endogenous in cells; host or cells: host cells of living C57BL/6J mice bearing TC-1 tumours (in vivo)
T1 sequence (P30993 1-351): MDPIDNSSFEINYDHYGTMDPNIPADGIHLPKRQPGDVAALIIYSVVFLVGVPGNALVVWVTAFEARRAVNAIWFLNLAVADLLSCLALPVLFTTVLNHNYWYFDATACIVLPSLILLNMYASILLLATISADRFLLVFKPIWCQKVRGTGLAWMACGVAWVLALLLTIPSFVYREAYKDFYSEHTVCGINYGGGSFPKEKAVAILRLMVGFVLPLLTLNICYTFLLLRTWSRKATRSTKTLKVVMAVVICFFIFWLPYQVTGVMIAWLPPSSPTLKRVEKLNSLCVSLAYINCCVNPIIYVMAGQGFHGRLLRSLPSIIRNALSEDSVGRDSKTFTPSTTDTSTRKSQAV

TC-1 tumors [3] = test: Immune cell infiltration of tumors (immunofluorescent staining for CD8, CD11b); assay type: in vivo, mouse
Method: The deposition of C3 cleavage products in tumor tissue was detected using a rat anti-mouse C3 mAb (clone 2/11), as described previously (Mastellos et al, 2004, Mol. Immunol. 40:1213-1221). […] Therefore, the positive reactivity in the tissue is thought to be associated with the activation of the complement cascade and C3 cleavage. C1q and MBL deposition were evaluated with the use of a rat anti-mouse C1q mAb (Abeam, Inc.) and a polyclonal goat anti-mouse MBL (Santa Cruz Biotechnology, Inc.), respectively. These sections were co-stained with the use of biotinylated anti-mouse CD31 to visualize tumor vasculature. CD8^+ T cell and myeloid-origin cell infiltrations of tumors were analyzed using anti-mouse CD8 and anti-mouse CD11b, respectively. Isotypic rat IgGs were used as a negative control. Anti-CD31, anti-CD8 and anti-CD11b and isotype controls were purchased from BD Biosciences. Primary antibodies bound in tissue were detected with donkey anti-rat or anti-goat Cy2-conjugated antibodies (The Jackson Laboratory), except for anti-CD31, which was visualized with a streptavidin-rhodamine complex (BD Biosciences). Immunofluorescent staining was performed on frozen, 5-μm-thick sections. For detection of complement deposition, green and red fluorescence images were merged with the use of Spot software (Diagnostic instruments, Inc.). CD8^+ tumor infiltrates were quantified using ImageJ image analysis software (NIH), positive cells were counted in whole tissue sections and means were calculated. The magnitude of CD11b^+ infiltrates was assessed in a semi-quantitative manner because of the relatively low numbers of infiltrating cells. Scores from 0 to 5 were assigned to sections, according to the relative intensity of the infiltrates. In addition, the distribution of infiltrating cells was analyzed. All analyses were performed in a blinded fashion.

arginase-1 = test: Arginase-1 expression in tumor whole-cell extracts (immunoblot); assay type: in vivo, mouse; settings: C5aR antagonist-treated vs control mice; without reaching statistical difference; FIG. 7F
Method: Whole-cell extracts were prepared from tumor tissue mechanically disrupted in lysis buffer (20 mM HEPES, pH 7.4, 0.2 mM EDTA, 420 mM NaCl, 1.5 mM MgCl2, 20% glycerol) treated with protease and phosphatase inhibitors (1 mM DTT, 0.1 mM PMSF, 0.1 mM Na3VO4, 1 mM NaF, 1 mM β-glycerophosphate, and 2 μg/ml each of antipain dihydrochloride, aprotinin, bestatin and leupeptin). For each protein sample, 40 μg was electrophoresed on a 12% polyacrylamide gel and transferred to a PVDF membrane. Membranes were incubated overnight at 4° C. with mouse monoclonal arginase I (8C9) antibody (Santa Cruz Biotechnology) or mouse monoclonal β-actin (AC-15) antibody (Abeam). Primary antibody binding was detected using HRP-conjugated anti-mouse antibody (Bio-Rad Laboratories, Inc.) and chemiluminescence (Amersham Pharmacia Biotech, Inc.). Protein loading was normalized according to the abundance of β-actin, with Ponceau S-stained membranes used for verification. Protein expression was quantified by densitometry using ImageQuant software (Molecular Dynamics).

TC-1 tumors [4] = test: Tumor cell proliferation, apoptosis and angiogenesis in end-point tumor specimens; assay type: in vivo, mouse; settings: C5aR antagonist vs PBS
Method: The morphology of tumors and spleens was assessed by light microscopy (Olympus BX 60) of hematoxylin and eosin-stained 5-μm paraffin sections. To assess the number of cells in the S phase of the cell cycle, paraffin sections from tumors and spleens were stained with anti-BrdU. The presence of apoptotic cells in tumor sections was determined by staining for the activated caspase-3 site on cytokeratin 18. Both assays were performed as described previously (Markiewski et al., 2004, J. Immunol. 173:747-754). The microvascular density of engrafted tumors was evaluated by immunofluorescent staining for CD31 expression on endothelial cells in frozen sections. The bound biotinylated anti-CD31 (MEC 13.3-BD Biosciences) was visualized with a streptavidin-rhodamine complex (BD Biosciences). Fluorescence was evaluated by standard fluorescent microscopy (Olympus BX 60 microscope). BrdU incorporation into tumor cells and the microvascular density of tumors were quantified in 5-10 microscopic fields (400× for BrdU and 100× for microvascular density) with the use of ImageJ image analysis software (NIH, Bethesda, Md.), and mean values were calculated. Apoptosis was assessed in a semi-quantitative manner: Scores from 0 to 4 were assigned to sections, depending on the size of the area occupied by apoptotic cells. All analyses were performed in a blinded fashion.

[5] = system: MDSCs obtained from tumors and spleens; test: CD11b expression in MDSCs after stimulation in vitro (flow cytometry); assay type: cell-based, mouse; settings: for CD11b upregulation in C5aR-deficient MDSCs: FIG. 6A-6D
Method: Single-cell suspensions were pre-incubated with anti-mouse CD16/CD32 mAb (Fc block, 2.4G2; BD Pharmingen) to block Fcγ receptors, then incubated with primary antibody. Fluorochrome-conjugated mAbs against mouse CD3 (17A2), CD4 (L3T4), CD8 (53-6.7), CD11b (M1/70), CD25 (PC61), CD45 (30-F11), CD69 (H1.2F3) and Gr-1 (RB6-8C5), (all from BD Biosciences) were used according to the manufacturer's instructions. In order to determine C5aR cell-surface expression, cells were sequentially incubated with rabbit polyclonal anti-mouse C5aR (C1150-32, BD Biosciences) or rabbit isotype (BD Pharmingen, 550875) and FITC-conjugated anti-rabbit IgG (F0112, R&D Systems), or with rat anti-mouse C5aR (mAb clone 20/70 Hycult biotechnology b.v., distributor-Cell science Inc.) or rat isotype (BD Pharmingen, 553928) followed by FITC-conjugated anti-rat IgG (Zymed-Invitrogen). For some experiments cells were permeabilized with the use of fixation and perm/wash buffers (BD Biosciences) prior to C5aR staining. Stained cells were subjected to six-color flow cytometry on a FACSCanto flow cytometer (BD Biosciences) using FlowJo software (Tree Star Inc.).
The migration of PMN-MDSCs to tumors requires crossing of the endothelial barrier by MDSCs. Leukocytes, in order to leave the circulation and migrate to interstitial tissues, require the interaction of their integrins with adhesion molecules on endothelial cells. It was hypothesized that the same mechanisms apply to MDSCs migrating to tumor tissue. Since CD11b is the αm subunit of integrin CR3, which interacts with ICAM-1 expressed on endothelial cells during leukocyte extravasation, the changes in CD11b expression were evaluated in MDSCs obtained from tumors and spleens after C5a stimulation in vitro.

[6] = system: MDSCs from spleens and tumors; test: ROS and RNS production in MDSCs after stimulation in vitro (H2DCFDA); assay type: cell-based, mouse; settings: for ROS and RNS production in spleen MDSCs of C5aR-deficient mice: MDSCs from spleens of C5aR-deficient mice; for ROS and RNS production in tumor-associated MDSCs: either subpopulation, data not shown
Method: The oxidation sensitive dye 2′-7′-dichloro dihydrofluorescein diacetate (H2DCFDA) (Molecular Probes) was used for the measurement of ROS and RNS production in cells isolated from tumors or spleens. The excised tumors and spleens were mechanically disintegrated to obtain a single-cell suspension. Cells resuspended in DMEM were incubated with 2 μM of dye at 37° C. for 15 min. After washing with PBS, cells were stained for flow cytometry analysis as described above. MDSCs were distinguished from other cells present in the cell suspension as a viable CD45^+CD11b^+Gr-1^+ cell population, and the fluorescence intensity was estimated in the channel suitable for FITC according to the manufacturer's instruction. The amounts of ROS and RNS in cells were proportional to the intensity of fluorescence and were expressed as median fluorescence for gated populations. For some experiments, in addition to incubation with H2DCFDA, freshly isolated cells were simultaneously stimulated by 1, 10, or 100 nM of recombinant mouse C5a expressed as previously described (Strey et al., 2003, J. Exp. Med. 198:913-923) or 1 μM of phorbol myristate acetate (PMA; Sigma-Aldrich). Preliminary experiments have shown that stimulation of cells with 10 nM C5a induced the highest induction of ROS and RNS production.
To further verify the results obtained from these in vivo studies, MDSCs from spleens and tumors of wild-type mice were stimulated to produce ROS and RNS by incubating them with various concentrations of C5a in vitro. MDSCs isolated from C5aR-deficient mice were used as an additional control for these experiments. […] It was concluded that the unresponsiveness of tumor-associated MDSCs to in vitro C5a stimulation was a result of the strong stimulation of these cells for ROS and RNS production in vivo in the tumor microenvironment and the exhaustion of this system; therefore, further stimulation of these cells in vitro failed.

## CC(=O)O[C@H]1C(=O)[C@@]2(C)[C@H]([C@H](OC(=O)c3ccccc3)[C@]3(O)C[C@H](OC(=O)[C@H](O)[C@@H](NC(=O)c4ccccc4)c4ccccc4)C(C)=C1C3(C)C)[C@]1(OC(C)=O)CO[C@@H]1C[C@@H]2O [Taxol, Paclitaxel]
TC-1 tumors [1]; wild-type mice treated with Taxol vs C5aR-KO mice treated with PBS, FIG. 3C
  suppressive effect on tumor growth compared with genetic C5aR deficiency: similar
[2]
  LD50: 128 mg/kg

## Acetyl-Phe-[Orn-Pro-D-cyclohexylalanine-Trp-Arg] [C5aR antagonist]
C5aR; literature (Kohl et al., 2006; Holland et al.)
  blockade of C5a-mediated effects in rodent disease models: specifically block C5a-mediated effects
TC-1 tumors [1]; C5aR-deficient mice, in comparison to mice treated with control peptide
  further inhibition of tumor growth in C5aR-deficient mice: did not induce any further inhibition of tumor growth
TC-1 tumors [1]; wild-type mice, 1 mg/kg s.c. every 2-3 days beginning 1 week after tumor cell injection, FIG. 3A
  tumor growth versus control mice treated with PBS: impaired tumor growth
TC-1 tumors [1]; wild-type mice, C5aR antagonist 1 mg/kg s.c. vs Taxol 20 mg/kg i.p. once per week, FIG. 3A
  inhibition of tumor growth compared with Taxol treatment: comparable to that achieved by treatment with this anti-cancer therapeutic
TC-1 tumors [3]; C5aR antagonist-treated mice, in control mice throughout the tumor sections
  location of CD11b+ cells in tumors: located only at the periphery of the tumors
TC-1 tumors [3]; C5aR antagonist-treated vs PBS-treated mice, FIG. 5F
  number of cells expressing CD11b in tumor sections: lower
TC-1 tumors [3]; C5aR antagonist-treated vs control mice, FIG. 4A
  CD8+ cells infiltrating the tumor tissue: heavily infiltrated by CD8^+ cells
arginase-1
  arginase-1 expression in tumors: only slightly lower
TC-1 tumors [4]
  tumor cell proliferation and apoptosis, and the extent of angiogenesis: only minimal differences

## AcF[OPdChaA(d)R]
C5aR; literature (Finch et al., 1999; Johswich et al., 2006)
  ability to block C5aR signaling: does not have the ability to block C5aR signaling

## CCCCCCCCCCCCCC(=O)O[C@@H]1[C@@H](C)[C@@]2(O)[C@@H](C=C(CO)C[C@]3(O)C(=O)C(C)=C[C@@H]23)[C@@H]2C(C)(C)[C@]12OC(C)=O [PMA, phorbol myristate acetate]
[5]
  CD11b upregulation in C5aR-deficient MDSCs: response
[6]; FIG. 7H, 7I
  ROS and RNS production in spleen MDSCs of C5aR-deficient mice: brisk response
[6]
  ROS and RNS production in tumor-associated MDSCs: lack of an increase

B1: C5a: recombinant mouse C5a anaphylatoxin used to stimulate MDSCs in vitro (protein)
chain: NLHLLRQKIEEQAAKYKHSVPKKCCYDGARVNFYETCEERVARVTIGPLCIRAFNECCTIANKIRKESPHKPVQLGR
[5]
  CD11b upregulation in C5aR-deficient MDSCs: lack of CD11b upregulation
[5]; MO-MDSCs, 10 nM C5a, FIG. 6C, 6D
  expression of CD11b in MO-MDSCs: did not respond
[5]; PMN-MDSCs from spleens and tumors, 10 nM C5a, FIG. 6A, 6B
  expression of CD11b in wild-type PMN-MDSCs: significant increase
[6]; 1, 10 or 100 nM tested, preliminary experiments
  C5a concentration giving the highest induction of ROS and RNS production: 10 nM
[6]; FIG. 7H, 7I
  ROS and RNS production in spleen MDSCs of C5aR-deficient mice: did not respond
[6]; both subpopulations, vs non-stimulated cells from the same mouse, FIG. 7H, 7I
  ROS and RNS production in spleen MDSCs of wild-type mice: increasing their ROS and RNS production
[6]
  ROS and RNS production in tumor-associated MDSCs: did not respond

From patent publication US10632170B2, “Administration of compstatin to an individual for the treatment of a tumor” (The Trustees of the University of Pennsylvania, priority 2008, dated 2020)
